From patent publication US7166598B2, “Piperazine derivatives” (Astellas Pharma Inc., priority 1998, dated 2007)

Row | SMILES | melting point
1 | COC[C@@H]1CN(CCN2CCN(C(=O)c3cc(C(F)(F)F)cc(C(F)(F)F)c3)[C@H](Cc3ccc4ccccc4c3)C2)CCO1.Cl.Cl | 145 to 148 °C
2 | Cl.Cn1cc(CN2CCN(C(=O)c3cc(C(F)(F)F)cc(C(F)(F)F)c3)[C@H](Cc3ccc(F)c(O)c3)C2)cn1 | 160 to 170 °C
3 | Cl.Cl.O=C(c1cc(C(F)(F)F)cc(C(F)(F)F)c1)N1CCN(CCCc2cccnc2)C[C@H]1Cc1ccc(F)c(O)c1 | 80 to 95 °C
4 | Cl.Cl.O=C(c1cc(C(F)(F)F)cc(C(F)(F)F)c1)N1CCN(Cc2cccnc2)C[C@H]1Cc1ccc(Cl)cc1 | 220 to 228 °C (dec.)
5 | COc1cc(C(=O)N2CCN(Cc3cccnc3)C[C@H]2Cc2ccc(C(F)(F)F)cc2)cc(C(F)(F)F)c1.Cl.Cl | 101 to 108 °C
6 | COc1cc(C(=O)N2CCN(CCCc3cccnc3)C[C@H]2Cc2ccc(Cl)c(O)c2)cc(C(F)(F)F)c1.Cl.Cl | 90 to 110 °C
7 | COC[C@@H]1CN(CCN2CCN(C(=O)c3cc(C(F)(F)F)cc(S(=O)(=O)N4CCCC4)c3)[C@H](Cc3ccc(C)c(O)c3)C2)CCO1.Cl.Cl | 125 to 177 °C
8 | COC[C@@H]1CN(CCN2CCN(C(=O)c3cc(-c4ccncc4)cc(C(F)(F)F)c3)[C@H](Cc3ccc(C)c(O)c3)C2)CCO1.Cl.Cl.Cl | 169 to 173 °C
9 | CSc1cc(C(=O)N2CCN(CCN3C[C@@H](C)O[C@@H](C)C3)C[C@H]2Cc2ccc(Cl)c(O)c2)cc(C(F)(F)F)c1.Cl.Cl | 162 to 178 °C
10 | CSc1cc(C(=O)N2CCN(CCN3CCc4ncccc4C3)C[C@H]2Cc2ccc(Cl)c(O)c2)cc(C(F)(F)F)c1.Cl.Cl.Cl | 169 to 178 °C
11 | COC[C@@H]1CN(CCN2CCN(C(=O)c3cc(C(F)(F)F)cc(S(C)(=O)=O)c3)[C@H](Cc3ccc(C)c(O)c3)C2)CCO1.Cl.Cl | 173.5 to 178 °C
12 | COC[C@@H]1CN(C/C=C/CN2CCN(C(=O)c3cc(C(F)(F)F)cc(C(F)(F)F)c3)[C@H](Cc3ccc(C)c(O)c3)C2)CCO1.Cl.Cl | 50 to 70 °C
13 | Cc1ccc(C[C@@H]2CN(CCN3CCOc4cccnc43)CCN2C(=O)c2cc(C(F)(F)F)cc(C(F)(F)F)c2)cc1O.Cl.Cl | 190 to 200 °C
14 | Cc1ccc(C[C@@H]2CN(Cc3cccnc3)CCN2C(=O)c2cc(C(F)(F)F)cc(C(F)(F)F)c2)cc1O.Cl.Cl | 110 to 130 °C
15 | Cc1ccc(C[C@@H]2CN(CCN3CCc4ncccc4C3)CCN2C(=O)c2cc(C(F)(F)F)cc(C(F)(F)F)c2)cc1O.Cl.Cl.Cl | 255 to 270 °C
16 | Cl.Cl.Cl.O=C(c1cc([N+](=O)[O-])cc(C(F)(F)F)c1)N1CCN(CCN2CCc3ncccc3C2)C[C@H]1Cc1ccc(Cl)cc1 | 221 to 228 °C
17 | CNc1cc(C(=O)N2CCN(CCN3CCc4ncccc4C3)C[C@H]2Cc2ccc(Cl)cc2)cc(C(F)(F)F)c1.Cl.Cl.Cl | 199 to 245 °C
18 | CSc1cc(C(=O)N2CCN(CCN3CCc4ncccc4C3)C[C@H]2Cc2ccc(Cl)cc2)cc(C(F)(F)F)c1.Cl.Cl.Cl | 182 to 195 °C
19 | Cl.Cl.Cl.O=C(c1cc(Cl)cc(C(F)(F)F)c1)N1CCN(CCN2CCc3ncccc3C2)C[C@H]1Cc1ccc(Cl)cc1 | 130.6 to 135.7 °C
20 | CN(C)c1cc(C(=O)N2CCN(CCN3CCc4ncccc4C3)C[C@H]2Cc2ccc(Cl)cc2)cc(C(F)(F)F)c1.Cl.Cl.Cl | 209 to 214 °C

Row | SMILES | melting point
21 | Cc1ccc(CC2CN(C/C=C/c3cccnc3)CCN2C(=O)c2cc(C(F)(F)F)cc(C(F)(F)F)c2)cc1O.Cl.Cl (stereo not drawn) | 60 to 80 °C
22 | Cc1ccc(C[C@@H]2CN(Cc3csc(N(C)C)n3)CCN2C(=O)c2cc(C(F)(F)F)cc(C(F)(F)F)c2)cc1O.Cl.Cl | 162 to 165 °C
23 | CNc1noc(CN2CCN(C(=O)c3cc(C(F)(F)F)cc(C(F)(F)F)c3)[C@H](Cc3ccc(C)c(O)c3)C2)n1.Cl.Cl | 145 to 160 °C
24 | Cl.Cl.O=C(c1cc(C(F)(F)F)cc(C(F)(F)F)c1)N1CCN(CCCc2cccnc2)C[C@H]1Cc1ccc(C(F)(F)F)cc1 | 64 to 74 °C
25 | COC[C@@H]1CN(CCN2CCN(C(=O)c3cc(C(F)(F)F)cc(C(F)(F)F)c3)[C@H](Cc3ccc(C)c(NCN4C(=O)CCC4O)c3)C2)CCO1.Cl.Cl.Cl (stereo partly drawn) | 163 to 176 °C
26 | COC[C@@H]1CN(CCN2CCN(C(=O)c3cc(C(F)(F)F)cc(C(F)(F)F)c3)[C@H](Cc3ccc(C)c(N4CCOCC4)c3)C2)CCO1.Cl.Cl.Cl | 150 to 170 °C
27 | COC[C@@H]1CN(CCN2CCN(C(=O)c3cc(C(F)(F)F)cc(S(N)(=O)=O)c3)[C@H](Cc3ccc(C)c(O)c3)C2)CCO1.Cl.Cl | 166 to 206 °C
28 | COC[C@@H]1CN(CCN2CCN(C(=O)c3cc(C(F)(F)F)cc(C(F)(F)F)c3)[C@H](Cc3ccc(C(F)(F)F)cc3)C2)[C@@H](C)CO1.Cl.Cl | 142 to 182 °C
29 | COC[C@@H]1CN(CCN2CCN(C(=O)c3cc(C(F)(F)F)cc(C(F)(F)F)c3)[C@H](Cc3ccc(F)c(OC)c3)C2)[C@@H](C)CO1.Cl.Cl | 140 to 164 °C
30 | COC[C@H]1CN(CCN2CCN(C(=O)c3cc(C(F)(F)F)cc(C(F)(F)F)c3)[C@H](Cc3ccc(Cl)c(O)c3)C2)CCO1.Cl.Cl | 204 to 214 °C
31 | CO[C@H]1CN(CCN2CCN(C(=O)c3cc(C(F)(F)F)cc(C(F)(F)F)c3)[C@H](Cc3ccc(Cl)c(O)c3)C2)C[C@@H]1OC.Cl.Cl | 150 to 155 °C
32 | Cl.Cl.O=C(c1cc(C(F)(F)F)cc(C(F)(F)F)c1)N1CCN(CCN2[C@H](CO)CCC[C@@H]2CO)C[C@H]1Cc1ccc(C(F)(F)F)cc1 | 164 to 167 °C
33 | COc1cc(C[C@@H]2CN(CCN3CCC[C@H]3CO)CCN2C(=O)c2cc(C(F)(F)F)cc(C(F)(F)F)c2)ccc1F.Cl.Cl | 198 to 201 °C
34 | COC[C@@H]1C[C@H](COC)CN(CCN2CCN(C(=O)c3cc(C(F)(F)F)cc(C(F)(F)F)c3)[C@H](Cc3ccc(F)c(OC)c3)C2)C1.Cl.Cl | 150 to 156 °C
35 | COC[C@@H]1CN(CCN2CCN(C(=O)c3cc(-c4ccncc4)cc(C(F)(F)F)c3)[C@H](Cc3ccc(C(F)(F)F)cc3)C2)CCO1.Cl.Cl.Cl | 81 to 91 °C
36 | CSc1cc(C(=O)N2CCN(CCN3C[C@@H](C)O[C@@H](C)C3)C[C@H]2Cc2ccc(C(F)(F)F)cc2)cc(C(F)(F)F)c1.Cl.Cl | 154 to 156 °C
37 | COc1cc(C[C@@H]2CN(CCN3CCc4ncccc4C3)CCN2C(=O)c2cc(SC)cc(C(F)(F)F)c2)ccc1F.Cl.Cl.Cl | 143.3 to 147.5 °C
38 | COc1cc(C[C@@H]2CN(CCN3CCc4ncccc4C3)CCN2C(=O)c2cc(-c3ccncc3)cc(C(F)(F)F)c2)ccc1F.Cl.Cl.Cl.Cl | 236.8 to 248.5 °C
39 | COC[C@@H]1CN(CCN2CCN(C(=O)c3cc(SC)cc(C(F)(F)F)c3)[C@H](Cc3ccc(C(F)(F)F)cc3)C2)CCO1.Cl.Cl | 153 to 170 °C
40 | COC[C@@H]1CN(CCN2CCN(C(=O)c3cc(Cl)cc(C(F)(F)F)c3)[C@H](Cc3ccc(C(F)(F)F)cc3)C2)CCO1.Cl.Cl | 168 to 173 °C

Row | SMILES | melting point
41 | Cl.Cl.O=C(c1cc(C(F)(F)F)cc(C(F)(F)F)c1)N1CCN(Cc2c[nH]c3ncccc23)C[C@H]1Cc1ccc(Cl)c(O)c1 | 197 to 200 °C
42 | COc1cc(C(=O)N2CCN(CCN3C[C@@H](C)O[C@@H](C)C3)C[C@H]2Cc2ccc(Cl)c(O)c2)cc(C(F)(F)F)c1.Cl.Cl | 177 to 182 °C
43 | COC[C@@H]1CN(CCN2CCN(C(=O)c3cc(C(F)(F)F)cc(C(F)(F)F)c3)[C@H](Cc3ccc(Cl)c(OC)c3)C2)CCO1.Cl.Cl | 145 to 149 °C
44 | COc1cc(C[C@@H]2CN(CC#CCN3CCOCC3(C)C)CCN2C(=O)c2cc(C(F)(F)F)cc(C(F)(F)F)c2)ccc1F.Cl.Cl | 125 to 130 °C
45 | Cl.Cl.Cl.O=C(c1cc(C(F)(F)F)cc(C(F)(F)F)c1)N1CCN(CCN2CCc3ncccc3C2)C[C@H]1Cc1ccc(F)c(O)c1 | 240 to 241 °C
46 | C[C@@H]1CN(CCN2CCN(C(=O)c3cc(C(F)(F)F)cc(C(F)(F)F)c3)[C@H](Cc3ccc(F)c(F)c3)C2)C[C@H](C)O1.Cl.Cl | 223 to 228 °C
47 | COc1cc(C[C@@H]2CN(CCN3CCc4ncccc4C3)CCN2C(=O)c2cc(C(F)(F)F)cc(C(F)(F)F)c2)ccc1C(F)(F)F.Cl.Cl.Cl | 195 to 200 °C
48 | COC[C@@H]1CN(CCN2CCN(C(=O)c3cc(C(F)(F)F)cc(C(F)(F)F)c3)[C@H](Cc3ccc(C)c(F)c3)C2)CCO1.Cl.Cl | 148 to 160 °C
49 | Cl.Cl.O=C(c1cc(C(F)(F)F)cc(C(F)(F)F)c1)N1CCN(CCN2CCC(F)(F)CC2)C[C@H]1Cc1ccc(C(F)(F)F)cc1 | 209 to 253 °C
50 | Cl.Cl.O=C(c1cc(C(F)(F)F)cc(C(F)(F)F)c1)N1CCN(Cc2cccnc2)C[C@H]1Cc1ccc(C(F)(F)F)cc1 | 198 to 223 °C
51 | COC[C@@H]1CN(CCN2CCN(C(=O)c3cc(OC)cc(C(F)(F)F)c3)[C@H](Cc3ccc(C(F)(F)F)cc3)C2)CCO1.Cl.Cl | 126 to 155 °C
52 | CC1(C)COCCN1CC#CCN1CCN(C(=O)c2cc(C(F)(F)F)cc(C(F)(F)F)c2)[C@H](Cc2ccc(Cl)c(O)c2)C1.Cl.Cl | 181 to 186 °C
53 | Cl.Cl.Cl.O=C(c1cc(C(F)(F)F)cc(C(F)(F)F)c1)N1CCN(CCN2CCc3ncccc3C2)C[C@H]1Cc1ccc(Cl)cc1 | 172 to 203 °C (dec.)
54 | COc1cc(C(=O)N2CCN(CCN3C[C@@H](C)O[C@@H](C)C3)C[C@H]2Cc2ccc(Cl)cc2)cc(C(F)(F)F)c1.Cl.Cl | 90 to 120 °C
55 | Cl.Cl.Cl.O=C(c1cc(C(F)(F)F)cc(C(F)(F)F)c1)N1CCN(CCN2CCc3ncccc3C2)C[C@H]1Cc1ccc(F)cc1 | 155.5 to 170.1 °C
56 | Cl.Cl.O=C(c1cc(C(F)(F)F)cc(C(F)(F)F)c1)N1CCN(CCN2CCC(F)(F)CC2)C[C@H]1Cc1ccc(Cl)c(O)c1 | 166 to 170 °C
57 | Cl.Cl.Cl.O=C(c1cc(C(F)(F)F)cc(C(F)(F)F)c1)N1CCN(CCN2CCc3ncccc3C2)C[C@H]1Cc1ccc2ccccc2c1 | 189 to 194 °C
58 | COC[C@@H]1CN(CCN2CCN(C(=O)c3cc(OC)cc(C(F)(F)F)c3)[C@H](Cc3ccc4ccccc4c3)C2)CCO1.Cl.Cl | 134 to 140 °C
59 | COc1cc(C(=O)N2CCN(CC#CCN3CCOCC3(C)C)C[C@H]2Cc2ccc3ccccc3c2)cc(C(F)(F)F)c1.Cl.Cl | 190 to 199 °C
60 | COc1cc(C(=O)N2CCN(CCN3CCC(F)(F)CC3)C[C@H]2Cc2c[nH]c3ccccc23)cc(C(F)(F)F)c1.Cl.Cl | 130 to 140 °C
